# In ChEMBL document CHEMBL3046455, “Synthesis and pharmacological evaluation of some novel 4-isopropyl thiazole-based sulfonyl derivatives as potent antimicrobial and antitubercular agents” (Med Chem Res, 2013):
# Legend:
# Escherichia coli = assay: Antibacterial activity against Escherichia coli ATCC 10536 after 24 hr by broth microdilution method; format: functional; conditions: ATCC 10536, 24 h
# Klebsiella pneumoniae = assay: Antibacterial activity against Klebsiella pneumoniae ATCC 10031 after 24 hr by broth microdilution method; format: functional; conditions: ATCC 10031, 24 h
# Bacillus subtilis = assay: Antibacterial activity against Bacillus subtilis ATCC 60511 after 24 hr by broth microdilution method; format: functional; conditions: ATCC 60511, 24 h
# Staphylococcus aureus = assay: Antibacterial activity against Staphylococcus aureus ATCC 11632 after 24 hr by broth microdilution method; format: functional; conditions: ATCC 11632, 24 h
# Enterococcus faecalis = assay: Antibacterial activity against Enterococcus faecalis ATCC 14506 after 24 hr by broth microdilution method; format: functional; conditions: ATCC 14506, 24 h
# [1] = tested on: Mycobacterium tuberculosis; assay: Antitubercular activity against Mycobacterium tuberculosis H37Rv after 21 days by broth microdilution method; format: functional; conditions: 504 h
# Aspergillus niger = assay: Antifungal activity against Aspergillus niger ATCC 6275 after 24 hr by broth microdilution method; format: functional; conditions: ATCC 6275, 24 h
# Candida tropicalis = assay: Antifungal activity against Candida tropicalis ATCC 1369 after 24 hr by broth microdilution method; format: functional; conditions: ATCC 1369, 24 h
# Saccharomyces cerevisiae = assay: Antifungal activity against Saccharomyces cerevisiae ATCC 9763 after 24 hr by broth microdilution method; format: functional; conditions: ATCC 9763, 24 h
# Pseudomonas aeruginosa = assay: Antibacterial activity against Pseudomonas aeruginosa ATCC 10145 after 24 hr by broth microdilution method; format: functional; conditions: ATCC 10145, 24 h
# A549 = assay: Cytotoxicity against Homo sapiens (human) A549 cells at […] by MTT assay relative to control; format: cell-based
SMILES,MIC (Escherichia coli) [µg/mL],MIC (Klebsiella pneumoniae) [µg/mL],MIC (Bacillus subtilis) [µg/mL],MIC (Staphylococcus aureus) [µg/mL],MIC (Enterococcus faecalis) [µg/mL],MIC [1] [µg/mL],MIC (Aspergillus niger) [µg/mL],MIC (Candida tropicalis) [µg/mL],MIC (Saccharomyces cerevisiae) [µg/mL],MIC (Pseudomonas aeruginosa) [µg/mL],Activity (A549)
CC(C)c1csc(-c2nnc(S(=O)(=O)Cc3ccc(Br)cc3)n2/N=C/c2ccc(F)cc2)n1,8,8,8,62.5,62.5,8,125,31.2,31.2,62.5,–
CC(C)c1csc(-c2nnc(S(=O)(=O)Cc3cc(Cl)ccc3F)o2)n1,8,4,8,8,31.2,4,8,8,16,4,–
CC(C)c1csc(-c2nnc(S(=O)(=O)Cc3ccc(Cl)cc3)o2)n1,4,8,8,16,31.2,4,16,8,8,8,–
CC(C)c1csc(-c2nnc(S(=O)(=O)Cc3ccc(Br)cc3)n2/N=C/c2c(F)cccc2F)n1,8,8,16,31.2,16,8,8,8,62.5,8,–
CC(C)c1csc(-c2nnc(S(=O)(=O)Cc3ccc(Cl)cc3)n2/N=C/c2ccc(Cl)cc2)n1,62.5,31.2,31.2,8,8,8,8,8,16,8,–
CC(C)c1csc(-c2nnc(S(=O)(=O)Cc3ccc(Br)cc3F)n2-c2ccccc2)n1,8,16,16,31.2,31.2,8,16,31.2,16,16,–
CC(C)c1csc(-c2nnc(S(=O)(=O)Cc3ccc(Br)cc3)n2-c2ccccc2)n1,16,16,16,8,16,8,16,16,16,8,–
CC(C)c1csc(-c2nnc(S(=O)(=O)Cc3ccccc3)n2/N=C/c2c(F)cccc2F)n1,31.2,31.2,62.5,4,8,4,8,16,8,4,–
CC(C)c1csc(-c2nnc(S(=O)(=O)Cc3ccc(OC(F)(F)F)cc3)n2-c2ccccc2)n1,2,4,8,31.2,8,1,31.2,16,16,8,50%
CC(C)c1csc(-c2nnc(S(=O)(=O)Cc3ccc(Br)cc3F)n2/N=C/c2ccc(Cl)cc2)n1,62.5,31.2,8,31.2,31.2,8,8,8,16,16,–
CC(C)c1csc(-c2nnc(S(=O)(=O)Cc3ccc(C(F)(F)F)cc3)n2-c2ccccc2)n1,16,16,8,4,8,4,16,31.2,16,16,–
CC(C)c1csc(-c2nnc(S(=O)(=O)Cc3ccc(Br)cc3F)n2/N=C/c2c(F)cccc2F)n1,16,31.2,16,31.2,31.2,8,16,16,16,8,–
CC(C)c1csc(-c2nnc(S(=O)(=O)Cc3ccc(C(F)(F)F)cc3)n2/N=C/c2ccc(F)cc2)n1,8,4,8,4,8,2,4,16,4,8,Toxic
